The target of this assay is human APJ receptor (Homo sapiens (Human), UniProt P35414). Briefly: [35S]GTPγS binding assay on membranes from CHO cells stably expressing human APJ receptor. To be noted: read-out: Activity hAPJ SPA EC50 IP. The class given is biochemical. Here is the method:
The human APJ receptor was cloned by polymerase chain reaction and the gene encoding the receptor was subcloned in pFLAG-CMV™-3 expression vector (Sigma, Saint Louis, Mo. USA) in-house at Amgen. A GTPγS binding assay was performed on membranes prepared from CHO cells stably expressing human APJ receptor. The optimum experimental conditions for the concentrations of GDP, MgCl2, and NaCl in the assay buffer were initially determined. The assay was performed in assay buffer [20 mM HEPES, pH 7.5, 5 mM MgCl2, and 0.1% (w/v) BSA with 200 mM NaCl, 3 μM GDP] and membranes expressing human APJ receptor/well along with WGA PS beads. The reaction was initiated by addition of 0.2 nM [^35S]GTPγS (Perkin Elmer Life and Analytical Sciences, Waltham USA) in the absence or presence of various ligands and incubated at RT for 90 min. Nonspecific binding was determined in the presence of 100 μM GTPγS and was always less than 0.2% of total binding. All the results presented are means of several independent experiments and analyzed by non-linear regression methods using commercially available program Prism (GraphPad, San Diego, Calif.) to obtain EC50 detailed in Table 38.

human APJ receptor, sequence (P35414 whole entry): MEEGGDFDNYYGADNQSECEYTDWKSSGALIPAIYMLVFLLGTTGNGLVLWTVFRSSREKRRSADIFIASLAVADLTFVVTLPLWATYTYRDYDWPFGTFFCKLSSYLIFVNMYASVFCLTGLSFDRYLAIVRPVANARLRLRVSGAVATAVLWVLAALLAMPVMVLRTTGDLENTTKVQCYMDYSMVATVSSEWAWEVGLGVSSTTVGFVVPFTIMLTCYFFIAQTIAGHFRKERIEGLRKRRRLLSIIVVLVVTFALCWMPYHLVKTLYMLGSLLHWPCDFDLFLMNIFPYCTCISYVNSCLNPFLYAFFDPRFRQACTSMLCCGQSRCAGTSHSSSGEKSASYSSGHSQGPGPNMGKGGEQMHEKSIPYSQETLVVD

A word on the EC50: it is the concentration at which the effect is half-maximal. For `COc1cccc(OC)c1-n1c(NS(=O)(=O)[C@@H](C)[C@H](OC)c2ncc(Cl)cn2)nnc1[C@H]1CCCO1` (single isomer, unassigned) [Example 52.0, (1R,2S)-1-(5-chloropyrimidin-2-yl)-N-(4-(2,6-dimethoxyphenyl)-5-((R)-tetrahydrofuran-2-yl)-4H-1,2,4-triazol-3-yl)-1-methoxypropane-2-sulfonamide or (1R,2S)-1-(5-chloropyrimidin-2-yl)-N-(4-(2,6-dimethoxyphenyl)-5-((S)-tetrahydrofuran-2-yl)-4H-1,2,4-triazol-3-yl)-1-methoxypropane-2-sulfonamide], the 50% effective concentration (EC50) worked out at 20 nM.

As for `COc1cccc(OC)c1-n1c(NS(=O)(=O)[C@@H](C)[C@H](C)c2ncc(C)cn2)nnc1[C@H]1CCOC1` (single isomer, unassigned) [Example 54.0, (2S,3R)-N-(4-(2,6-dimethoxyphenyl)-5-((R)-tetrahydrofuran-3-yl)-4H-1,2,4-triazol-3-yl)-3-(5-methylpyrimidin-2-yl)butane-2-sulfonamide or (2S,3R)-N-(4-(2,6-dimethoxyphenyl)-5-((S)-tetrahydrofuran-3-yl)-4H-1,2,4-triazol-3-yl)-3-(5-methylpyrimidin-2-yl)butane-2-sulfonamide], the EC50 was found to be 37 nM.

With `COc1cccc(OC)c1-n1c(NS(=O)(=O)[C@@H](C)[C@H](C)c2ncc(C)cn2)nnc1[C@H]1CCOC1` (single isomer, unassigned) [Example 55.0, (2S,3R)-N-(4-(2,6-dimethoxyphenyl)-5-((R)-tetrahydrofuran-3-yl)-4H-1,2,4-triazol-3-yl)-3-(5-methylpyrimidin-2-yl)butane-2-sulfonamide or (2S,3R)-N-(4-(2,6-dimethoxyphenyl)-5-((S)-tetrahydrofuran-3-yl)-4H-1,2,4-triazol-3-yl)-3-(5-methylpyrimidin-2-yl)butane-2-sulfonamide], the EC50 was 66 nM.

Take `COc1cccc(OC)c1-n1c(NS(=O)(=O)[C@@H](C)[C@H](C)c2ncc(C)cn2)nnc1[C@H]1CCCOC1` (single isomer, unassigned) [Example 58.0, (2S,3R)-N-(4-(2,6-dimethoxyphenyl)-5-((R)-tetrahydro-2H-pyran-3-yl)-4H-1,2,4-triazol-3-yl)-3-(5-methylpyrimidin-2-yl)butane-2-sulfonamide or (2S,3R)-N-(4-(2,6-dimethoxyphenyl)-5-((S)-tetrahydro-2H-pyran-3-yl)-4H-1,2,4-triazol-3-yl)-3-(5-methylpyrimidin-2-yl)butane-2-sulfonamide]: the EC50 is 120 nM.

As to `COc1cccc(OC)c1-n1c(NS(=O)(=O)[C@@H](C)[C@H](C)c2ncc(C)cn2)nnc1[C@H]1CCCOC1` (single isomer, unassigned) [Example 59.0, (2S,3R)-N-(4-(2,6-dimethoxyphenyl)-5-((R)-tetrahydro-2H-pyran-3-yl)-4H-1,2,4-triazol-3-yl)-3-(5-methylpyrimidin-2-yl)butane-2-sulfonamide or (2S,3R)-N-(4-(2,6-dimethoxyphenyl)-5-((S)-tetrahydro-2H-pyran-3-yl)-4H-1,2,4-triazol-3-yl)-3-(5-methylpyrimidin-2-yl)butane-2-sulfonamide], the EC50 stood at 16 nM.

Consider `COc1cccc(OC)c1-n1c(NS(=O)(=O)[C@@H](C)[C@H](C)c2ncc(Cl)cn2)nnc1[C@H]1CCCOC1` (single isomer, unassigned) [Example 62.0, (2S,3R)-3-(5-chloropyrimidin-2-yl)-N-(4-(2,6-dimethoxyphenyl)-5-((R)-tetrahydro-2H-pyran-3-yl)-4H-1,2,4-triazol-3-yl)butane-2-sulfonamide or (2S,3R)-3-(5-chloropyrimidin-2-yl)-N-(4-(2,6-dimethoxyphenyl)-5-((S)-tetrahydro-2H-pyran-3-yl)-4H-1,2,4-triazol-3-yl)butane-2-sulfonamide], for which the EC50 amounted to 26 nM.

Consider `COc1cccc(OC)c1-n1c(NS(=O)(=O)[C@@H](C)[C@H](OC)c2ncc(Cl)cn2)nnc1[C@H]1CCCOC1` (single isomer, unassigned) [Example 64.0, (1R,2S)-1-(5-chloropyrimidin-2-yl)-N-(4-(2,6-dimethoxyphenyl)-5-((R)-tetrahydro-2H-pyran-3-yl)-4H-1,2,4-triazol-3-yl)-1-methoxypropane-2-sulfonamide or (1R,2S)-1-(5-chloropyrimidin-2-yl)-N-(4-(2,6-dimethoxyphenyl)-5-((S)-tetrahydro-2H-pyran-3-yl)-4H-1,2,4-triazol-3-yl)-1-methoxypropane-2-sulfonamide], for which the EC50 came out at 29 nM.

As for `COc1cccc(OC)c1-n1c(NS(=O)(=O)[C@@H](C)[C@@H](OC(C)C)c2cnc(C)cn2)nnc1[C@H]1CCCO1` (single isomer, unassigned) [Example 66.0], the EC50 is 6.9 nM.

For `COc1cccc(OC)c1-n1c(NS(=O)(=O)[C@@H](C)[C@@H](OC(C)C)c2cnc(C)cn2)nnc1[C@H]1CCCO1` (single isomer, unassigned) [Example 67.0], the 50% effective concentration (EC50) was 180 nM.

For `COc1cccc(OC)c1-n1c(NS(=O)(=O)[C@@H](C)[C@H](C)c2ncc(Cl)cn2)nnc1[C@H]1OCC[C@H]1C` (single isomer, unassigned) [Example 68.0, (2S,3R)-3-(5-chloropyrimidin-2-yl)-N-(4-(2,6-dimethoxyphenyl)-5-((2S,3R)-3-methyltetrahydrofuran-2-yl)-4H-1,2,4-triazol-3-yl)butane-2-sulfonamide or (2S,3R)-3-(5-chloropyrimidin-2-yl)-N-(4-(2,6-dimethoxyphenyl)-5-((2R,3S)-3-methyltetrahydrofuran-2-yl)-4H-1,2,4-triazol-3-yl)butane-2-sulfonamide], the EC50 amounted to 14 nM.

Regarding `COc1ncnc(OC)c1-n1c(NS(=O)(=O)[C@@H](C)[C@H](C)c2ncc(C)cn2)nnc1[C@H]1CCCO1` (single isomer, unassigned) [Example 69.0, (2S,3R)-N-(4-(4,6-dimethoxypyrimidin-5-yl)-5-((S)-tetrahydrofuran-2-yl)-4H-1,2,4-triazol-3-yl)-3-(5-methylpyrimidin-2-yl)butane-2-sulfonamide or (2S,3R)-N-(4-(4,6-dimethoxypyrimidin-5-yl)-5-((R)-tetrahydrofuran-2-yl)-4H-1,2,4-triazol-3-yl)-3-(5-methylpyrimidin-2-yl)butane-2-sulfonamide], the EC50 was determined as 82 nM.

With `COc1ncnc(OC)c1-n1c(NS(=O)(=O)[C@@H](C)[C@H](C)c2ncc(C)cn2)nnc1[C@H]1CCCO1` (single isomer, unassigned) [Example 70.0, (2S,3R)-N-(4-(4,6-dimethoxypyrimidin-5-yl)-5-((S)-tetrahydrofuran-2-yl)-4H-1,2,4-triazol-3-yl)-3-(5-methylpyrimidin-2-yl)butane-2-sulfonamide or (2S,3R)-N-(4-(4,6-dimethoxypyrimidin-5-yl)-5-((R)-tetrahydrofuran-2-yl)-4H-1,2,4-triazol-3-yl)-3-(5-methylpyrimidin-2-yl)butane-2-sulfonamide], the EC50 was found to be 15 nM.

`COc1cccc(OC)c1-n1c(NS(=O)(=O)[C@@H](C)[C@H](C)c2ncc(C)cn2)nnc1[C@H]1OCC[C@H]1C` (single isomer, unassigned) [Example 71.0, (2S,3R)-N-(4-(2,6-dimethoxyphenyl)-5-((2R,3S)-3-methyltetrahydrofuran-2-yl)-4H-1,2,4-triazol-3-yl)-3-(5-methylpyrimidin-2-yl)butane-2-sulfonamide or (2S,3R)-N-(4-(2,6-dimethoxyphenyl)-5-((2S,3R)-3-methyltetrahydrofuran-2-yl)-4H-1,2,4-triazol-3-yl)-3-(5-methylpyrimidin-2-yl)butane-2-sulfonamide]: the EC50 is 450 nM.

For `COc1cccc(OC)c1-n1c(NS(=O)(=O)[C@@H](C)[C@H](C)c2ncc(Cl)cn2)nnc1[C@H]1OCC[C@H]1C` (single isomer, unassigned) [Example 75.0, (2S,3R)-3-(5-chloropyrimidin-2-yl)-N-(4-(2,6-dimethoxyphenyl)-5-((2R,3S)-3-methyltetrahydrofuran-2-yl)-4H-1,2,4-triazol-3-yl)butane-2-sulfonamide or (2S,3R)-3-(5-chloropyrimidin-2-yl)-N-(4-(2,6-dimethoxyphenyl)-5-((2S,3R)-3-methyltetrahydrofuran-2-yl)-4H-1,2,4-triazol-3-yl)butane-2-sulfonamide], the half-maximal effective concentration (EC50) came to 210 nM.

With `COc1cccc(OC)c1-n1c(NS(=O)(=O)[C@@H](C)[C@H](C)c2ncc(Cl)cn2)nnc1[C@H]1OCC[C@H]1C` (single isomer, unassigned) [Example 76.0, (2S,3R)-3-(5-chloropyrimidin-2-yl)-N-(4-(2,6-dimethoxyphenyl)-5-((2R,3S)-3-methyltetrahydrofuran-2-yl)-4H-1,2,4-triazol-3-yl)butane-2-sulfonamide or (2S,3R)-3-(5-chloropyrimidin-2-yl)-N-(4-(2,6-dimethoxyphenyl)-5-((2S,3R)-3-methyltetrahydrofuran-2-yl)-4H-1,2,4-triazol-3-yl)butane-2-sulfonamide], the concentration giving a half-maximal response (EC50) was 1.4 nM.

These data come from patent US10150760B2, “Compounds for use in preparing heterocyclic triazole agonists of the APJ receptor” (AMGEN INC., priority 2016, dated 2018).
